Experimental data as given in the supplement of paper PMC8671470.

Key:
Details in all cases: 72 h
K-562 [1] = system: K-562
Summary of the method: (§1)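 The IC50 was read from log-logistic dose–response fits. Fifteen myeloid leukaemia lines were exposed for 72 h at 37 °C with 5% CO2 to five tenfold doses from 1 to 10,000 nM in duplicate. ATP luminescence, normalised to vehicle and to a 10 µM positive control, was fitted with four parameters.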

KU-812 [2] = system: KU-812
Summary of the method: as §1

MV4-11 [3] = system: MV4-11
Summary of the method: as §1

Mono-Mac-6 [4] = system: Mono-Mac-6
Summary of the method: as §1

NOMO-1 [5] = system: NOMO-1
Summary of the method: as §1

HL-60 [6] = assay: cell viability (% survival relative to DMSO control); higher = less cytotoxic
Summary of the method: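 Four-parameter log-logistic fits in drc and PharmacoGx supplied area under the curve where it is given. Underlying viability came from CellTiter-Glo, normalised to DMSO and proteasome-inhibitor wells, with the proteasome inhibitor at 10 μM. HL-60 cells in RPMI 1640 plus 10% FBS had been rescreened against the full library at five tenfold concentrations of 1–10,000 nM, in duplicate on 384-well plates, with DMSO or 100 nM of one of three metabolic inhibitors, for 72 h at 37 °C, 5% CO2.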

BV-173 = assay: cell viability (% survival relative to DMSO control, bortezomib = 0%); higher = less cytotoxic
Summary of the method: (§2)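 Fifteen myeloid leukaemia cell lines (10 AML, 5 CML) were seeded at a density titrated to the linear growth range. They went into 384-well plates with compounds pre-printed at 1, 10, 100, 1000 or 10000 nM in duplicate. After 72 h at 37 °C with 5% CO2, viability was read by CellTiter-Glo luminescence. Values are percent survival, with vehicle set to 100% and a 10 µM positive control to 0%, averaged over the duplicates.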

HEL = assay: as above
Summary of the method: as §2

HL-60 [7] = assay: as above
Summary of the method: as §2

K-562 [8] = assay: as above
Summary of the method: as §2

KCL-22 = assay: as above
Summary of the method: as §2

KG-1 = assay: as above
Summary of the method: as §2

KU-812 [9] = assay: as above
Summary of the method: as §2

LAMA-84 = assay: as above
Summary of the method: as §2

ML-2 = assay: as above
Summary of the method: as §2

MOLM-13 = assay: as above
Summary of the method: as §2

MV4-11 [10] = assay: as above
Summary of the method: as §2

Mono-Mac-6 [11] = assay: as above
Summary of the method: as §2

NOMO-1 [12] = assay: as above
Summary of the method: as §2

SHI-1 = assay: as above
Summary of the method: as §2

THP-1 = assay: as above
Summary of the method: as §2

O=C(O)c1cc(N=Nc2ccc(S(=O)(=O)Nc3ccccn3)cc2)ccc1O [Sulfasalazine]
Details	IC50 (cell viability) [nM]
K-562 [1]	> 10000
KU-812 [2]	> 10000
MV4-11 [3]	> 10000
Mono-Mac-6 [4]	> 10000
NOMO-1 [5]	> 10000

cell viability [%], HL-60 [6]
Details	0.001 µM	0.01 µM	0.1 µM	1 µM	10 µM
co-treatment: AZD3965 100 nM	101.5	109	96	97.23	111
co-treatment: DMSO vehicle	101	101.7	98.9	100.2	104
co-treatment: GSK2194069 100 nM	105	103	101	103	105
co-treatment: pictilisib 100 nM	107	103	93.57	92.3	112

cell viability [%]
Details	1 nM	10 nM	100 nM	1000 nM	10000 nM
BV-173	106	90.3	113	99.7	112
HEL	111	91.9	114	94	111
HL-60 [7]	99.4	71.4	135	106	70.8
K-562 [8]	100	91.6	120	90.3	131
KCL-22	107	97.3	106	92.9	124
KG-1	103	89	112	43.4	128
KU-812 [9]	110	98.2	107	108	102
LAMA-84	105	97.1	101	106	105
ML-2	106	87.4	118	112	102
MOLM-13	105	102	113	84.6	136
MV4-11 [10]	101	89.1	112	95.9	103
Mono-Mac-6 [11]	105	92.7	120	103	104
NOMO-1 [12]	112	101	99	101	102
SHI-1	107	87.6	114	97.8	95.7
THP-1	107	101	106	101	106

C=C(C=NNC(=N)N)NNC(=N)N [Mitoguazone]
Details	IC50 (cell viability) [nM]
K-562 [1]	1320
KU-812 [2]	4550
MV4-11 [3]	1130
Mono-Mac-6 [4]	1240
NOMO-1 [5]	1590

cell viability [%], HL-60 [6]
Details	0.001 µM	0.01 µM	0.1 µM	1 µM	10 µM
co-treatment: AZD3965 100 nM	98	102	102	93.1	48.6
co-treatment: DMSO vehicle	99.2	100.1	97.8	101	69.6
co-treatment: GSK2194069 100 nM	101	112	102.2	98.3	76.9
co-treatment: pictilisib 100 nM	108	120	104	112	56.7

cell viability [%]
Details	1 nM	10 nM	100 nM	1000 nM	10000 nM
BV-173	105	111	107	71	13.3
HEL	103	108	97.5	93.2	50.4
HL-60 [7]	85.2	73.2	148	97.7	32.9
K-562 [8]	96.1	105	114	67	29.3
KCL-22	94.4	100	103	86.9	42
KG-1	94.9	97.2	103	84.7	34.8
KU-812 [9]	105	107	96.5	83	30.6
LAMA-84	99.9	104	100	86.6	24.4
ML-2	97.7	104	100	56.6	24.7
MOLM-13	93.7	88.3	133	52.2	13.8
MV4-11 [10]	105	99.2	115	59.8	10.4
Mono-Mac-6 [11]	92.4	92.3	85.5	55.3	18.1
NOMO-1 [12]	94.9	102	90.9	61.7	16.2
SHI-1	93.8	89.2	95.4	59.8	20.6
THP-1	101	104	94.9	76.1	43.6
